Assay results from publication PMC3856698 (Biochemistry, 2013).

Key:
[1] = molecular target: T1, VHR (Homo sapiens, UniProt P51452); experiment: pre-steady-state burst kinetics, stopped flow at […] nm; type: biochemical; conditions: read-out: KS
[2] = molecular target: T2, VHZ (LDP3) (Homo sapiens, UniProt Q9BVJ7); experiment: inhibition of pNPP hydrolysis, competitive model fit; type: biochemical
T2 sequence (Q9BVJ7 1-150): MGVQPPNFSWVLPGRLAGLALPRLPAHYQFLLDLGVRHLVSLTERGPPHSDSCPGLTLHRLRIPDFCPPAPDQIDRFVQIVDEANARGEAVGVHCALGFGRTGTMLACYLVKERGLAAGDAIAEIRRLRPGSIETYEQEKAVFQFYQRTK

[3] = molecular target: YopH
[4] = molecular target: T3, SsoPTP (Saccharolobus solfataricus, UniProt Q97VZ7); experiment: biochemical
T3 sequence (Q97VZ7 1-161): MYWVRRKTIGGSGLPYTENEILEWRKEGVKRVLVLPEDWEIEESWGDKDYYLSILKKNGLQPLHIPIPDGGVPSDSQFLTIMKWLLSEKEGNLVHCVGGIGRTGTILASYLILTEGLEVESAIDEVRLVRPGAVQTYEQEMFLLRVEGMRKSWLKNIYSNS

[5] = molecular target: T1, VHR; experiment: biochemical
[6] = molecular target: PTP1B (Homo sapiens, UniProt P18031); experiment: biochemical
PTP1B, sequence (P18031 1-321 limits assumed): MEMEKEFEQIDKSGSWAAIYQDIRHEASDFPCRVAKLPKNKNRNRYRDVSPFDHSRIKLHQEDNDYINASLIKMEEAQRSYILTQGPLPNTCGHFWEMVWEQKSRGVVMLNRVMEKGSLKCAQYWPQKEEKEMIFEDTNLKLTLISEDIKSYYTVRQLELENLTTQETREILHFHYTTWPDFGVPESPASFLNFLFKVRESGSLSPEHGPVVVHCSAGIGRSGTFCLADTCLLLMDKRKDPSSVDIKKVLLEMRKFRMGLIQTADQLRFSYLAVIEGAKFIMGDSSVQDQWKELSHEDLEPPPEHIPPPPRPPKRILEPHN

T1 sequence (P51452 whole entry): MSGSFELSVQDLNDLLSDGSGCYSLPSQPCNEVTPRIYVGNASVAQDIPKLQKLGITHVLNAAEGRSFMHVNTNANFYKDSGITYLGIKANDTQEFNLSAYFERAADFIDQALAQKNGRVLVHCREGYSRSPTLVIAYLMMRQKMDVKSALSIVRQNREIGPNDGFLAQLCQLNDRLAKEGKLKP

Structure (SMILES) | Ki [2] [mM] | also measured
O=[N+]([O-])c1ccc(OP(=O)(O)O)cc1 [pNPP] | – | Kd [1]: 11.8 mM
NC(CO)(CO)CO [Tris] | 88 ± 9 | –
[O]=[V]([OH])([OH])[OH] [Vanadate] | 0.0027 ± 0.0003 | –
O=C(O)CN(CCN(CC(=O)O)CC(=O)O)CC(=O)O [EDTA] | 22 ± 2 | –
O=S(=O)(O)CCN1CCN(CCO)CC1 [HEPES] | 26 ± 3 | –
O=P(O)(O)O [Inorganic phosphate] | 0.67 ± 0.05 | Ki [3]: 4.4 ± 0.2 mM; Ki [4]: 0.54 ± 0.42 mM; Ki [5]: 0.7 ± 0.3 mM; Ki [6]: 3.7 ± 0.1 mM
O=S(=O)(O)O [Sulfate] | 4.6 ± 0.3 | –
